Laboratory results from patent US12534429B2, “Heterodimers of glutamic acid” (Molecular Insight Pharmaceuticals, Inc., priority 2006, dated 2026).

Key:
[1] = tested on: LnCap cells; test: Rate of uptake and internalization (acid wash assay) of MIP-1072 in LNCaP cells; assay type: cell-based, human; conditions: 100 nM; for internalization in LNCaP cells: 4° C. and 37° C.
Protocol: In order to confirm the results of the Scatchard analysis of FIG. 7 indicating MIP-1072 internalization into LNCaP cells, the rate of uptake of MIP-1072 in LNCaP cells was monitored. Each well was dosed with 100 nM MIP-1072 (2 uCi/well) at 4° C. and 37° C. Binding to PSMA reached equilibrium after 15 min as evidenced by the plateau in the curve at 4° C. The cells incubated at 37° C. continued to internalize MIP-1072 after equilibrium had been reached.
The ability of MIP-1072 to internalize in LNCaP cells was confirmed by an acid wash assay (FIG. 19). LNCaP cells were incubated in HBS with 100 nM ^123I-MIP-1072 for 0-2 hours at 4 and 37° C. At the indicated time the media was removed and the cells were incubated in mild acid buffer (50 mM glycine, 150 mM NaCl, pH 3.0) at 4° C. for 5 minutes. After the brief incubation the cells were centrifuged at 20,000×g for 5 minutes. The supernatant and cell pellet were counted in a gamma counter. In order to confirm the results of the saturation binding analysis indicating MIP-1072 internalization into LNCaP cells, we monitored the rate of uptake of MIP-1072 in LNCaP cells. Each well was dosed with 100 nM MIP-1072 (2 uCi/well) at 4° C. and 37° C. Binding to PSMA reached equilibrium after 15 min as evidenced by the plateau in the curve at 4° C. The cells incubated at 37° C. continued to internalize MIP-1072 after equilibrium had been reached. […] (FIG. 19).

[2] = tested on: PSMA positive LNCaP xenografts; assay type: in vivo, male NCr Nude mice
Protocol: Tissue biodistribution of I^23I-MIP-1072 (2 μCi/mouse, >1,000 mCi/μmole) was assessed in selected tissues from LNCaP (PSMA positive) tumor bearing nude mice. Results are expressed as the percent of the injected dose per gram of the selected tissues (% ID/g).
(§1) FIG. 21 Uptake of ^23I-MIP-1072 in LNCaP and PC3 xenograft bearing mice.
(§2) A quantitative analysis of the tissue distribution of ^123I-MIP-1072 was performed in separate groups of male NCr Nude^−/− mice bearing PSMA positive LNCaP xenografts (approximately 100-200 mm^3) administered via the tail vein as a bolus injection (approximately 2 μCi/mouse) in a constant volume of 0.05 ml. The animals (n=5/time point) were euthanized by asphyxiation with carbon dioxide at 0.25, 1, 2, 4, 8, and 24 hours post injection. Tissues (blood, heart, lungs, liver, spleen, kidneys, adrenals, stomach, large and small intestines (with contents), testes, skeletal muscle, bone, brain, adipose, and tumor) were dissected, excised, weighed wet, transferred to plastic tubes and counted in an automated γ-counter (LKB Model 1282, Wallac Oy, Finland). […] MIP-1072, uptake and exposure was greatest in the kidney and LNCaP xenograft which express high levels of PSMA. Peak uptake in the kidney was 158±46% ID/g at 2 hours and the LNCaP xenograft was 17±6% ID/g at 1 hours (FIG. 20).

[3] = tested on: PC3 tumors which do not express PSMA; test: Tumor uptake of 123I-MIP-1072 in PC3 xenograft bearing mice; assay type: in vivo, male NCr Nude mice; conditions: 1 hour post injection
Protocol: as §1, §2

[4] = target: T1, PSMA on LNCaP cells (Homo sapiens, UniProt Q04609); test: In vitro cell binding: competition with I-131 DCIT for binding to PSMA on LNCaP cells; conditions: LnCap cells, dose curves; read-out: IC50 values versus I-131 DCIT
T1 construct: LNCaP human prostate cancer cells were obtained from American Type Culture Collection; host or cells: LNCaP human prostate cancer cells
Protocol: In vitro cold screening assays verses I-131 DCIT. LNCaP and PC3 human prostate cancer cells were obtained from American Type Culture Collection, Rockville, MD LNCaP cells were maintained in RPMI-1640 medium supplemented with 10% fetal bovine serum (FBS). PC3 cells were grown in F12K medium supplemented with 10% FBS. Binding of the radiolabeled compound and competition with cold derivatives to LNCaP and PC-3 cells was performed according to the methods of Tang et al. (Tang, H.; Brown, M.; Ye, Y.; Huang, G.; Zhang, Y.; Wang, Y.; Zhai, H.; Chen, X.; Shen, T. Y.; Tenniswood, M., Prostate targeting ligands based on N-acetylated alpha-linked acidic dipeptidase, Biochem. Biophys. Res. Commun. 2003, 307, 8-14) with appropriate modifications. Cells were plated in 12-well plates at approximately 4×10^5 cells/well and incubated for 48 hours in a humidified incubator at 37° C./5% carbon dioxide prior to addition of compound. Each unique SAAC-urea-Glu conjugate was prepared and diluted in serum-free cell culture medium containing 0.5% bovine serum albumin (BSA) in combination with 3 nM I-131 DCIT (known inhibitor). Total binding was determined by incubating I-131 DCIT without test compound. Plates were incubated at room temperature for 1 hour. Cells were removed from the plates by gently pipeting and transferred to eppendorff tubes. Samples were microcentrifuged for 15 seconds at 10K×g. The medium was aspirated and the pellet was washed twice by dispersal in fresh assay medium followed by microcentrifugation. Cell binding of I-131 DCIT was determined by counting the cell pellet in an automated gamma counter. […] The control compounds are depicted below.
The ability of non-radioactive analogs to compete with ^131I-DCIT for binding to PSMA was tested in the PSMA positive human prostate cancer cell line, LNCaP cells. LNCaP cells (300,000 cells/well) were incubated for 1 hour with 3 nM [^131I]-DCIT in the presence of 1-10,000 nM MIP-1072 in RPMI-1640 medium supplemented with 0.5% bovine serum albumin, then washed and counted in a gamma counter. All documents cited in this specification including patent applications are incorporated by reference in their entirety.

[5] = target: T1, PSMA on LNCaP cells; test: Saturation binding analysis of radiolabeled MIP-1072 in LNCaP cells
Protocol: The affinity constant (Kd) of MIP-1072 was determined by saturation binding analysis (FIG. 18). LNCaP cells were incubated for 1 hour with 30-100,000 pM ^131I-MIP-1072 in HBS (50 mM Hepes, pH 7.5, 0.9% sodium chloride) at either 4° C. or 37° C. in the absence or presence of 10 μM unlabeled MIP-1072 (to determine non-specific binding). Cells were then washed and the amount of radioactivity was measured on a gamma counter. Specific binding was calculated as the difference between total binding and nonspecific binding. […] The Bmax, however, was greater at 37° C. than at 4° C.; […] fmol/10^6 cells, respectively, indicating internalization of MIP-1072. The results below are representative of two independent analyses.

[6] = Microsome assay (stability in rat liver microsomes); assay type: in vitro ADME; conditions: 37° C., 60 min incubation; MIP-1072 50 μM, phenacetin 100 μM
Protocol: Pooled male rat liver microsomes (1 mg/mL, BD Biosciences), NADPH regenerating system (1.3 mM NADP, 3.3 mM glucose 6-phosphate and 0.4 U/mL glucose 6-phosphate dehydrogenase, BD Biosciences) and test compound (50 μM MIP-1072, 50 μM DCT, and 100 μM phenacetin) were added to 0.1 M potassium phosphate buffer (pH 7.4) in order to monitor the catastrophic degradation of the test compounds. The mixture was incubated at 37° C. and at the indicated time (0, 15, 60 min) the reaction was stopped by the addition of an equal volume of ice cold methanol (500 μL). The resulting slurry was then centrifuged at 21,000×G for 10 min and the supernatant was collected and injected onto an Agilent LCMS model MSD SL using a 95:5 water:acetonitrile (with 0.1% formic acid) to 40:60 water:acetonitrile (with 0.1% formic acid) gradient and monitoring for the parent ion only in single ion mode. The results, shown in FIGS. 11A and 11B, are expressed as degradation of the parent ion with respect to the 0 min time point.
The stability of MIP-1072 was assessed using rat liver microsomes. MIP-1072 (50 μM) and Phenacetin (100 μM) were incubated with rat liver microsomes at 37° C. for the indicated time. Phenacetin was used as a control substance that is known to be metabolized. MIP-1072 was not degraded by the rat liver microsomes during the incubation period. […]

[7] = tested on: LNCaP (PSMA positive) tumors; test: Tissue biodistribution of I-131 MIP 1072 in xenograft tumored mice, LNCaP tumors; assay type: in vivo; conditions: I-131-labeled
Source text: (§3) The lead compound, MIP 1072, was I-131-labeled for tissue distribution studies in mice with both LNCaP (PSMA positive) and PC3 (PSMA negative) tumors implanted. The compound was radiolabeled by the route shown below.
(§4) A graph depicting the mice distribution is shown below (FIG. 12).

[8] = tested on: PC3 (PSMA negative) tumors; test: Tissue biodistribution of I-131 MIP 1072 in xenograft tumored mice, PC3 tumors; assay type: in vivo; conditions: I-131-labeled
Source text: as §3, §4

T1 sequence (Q04609 whole entry): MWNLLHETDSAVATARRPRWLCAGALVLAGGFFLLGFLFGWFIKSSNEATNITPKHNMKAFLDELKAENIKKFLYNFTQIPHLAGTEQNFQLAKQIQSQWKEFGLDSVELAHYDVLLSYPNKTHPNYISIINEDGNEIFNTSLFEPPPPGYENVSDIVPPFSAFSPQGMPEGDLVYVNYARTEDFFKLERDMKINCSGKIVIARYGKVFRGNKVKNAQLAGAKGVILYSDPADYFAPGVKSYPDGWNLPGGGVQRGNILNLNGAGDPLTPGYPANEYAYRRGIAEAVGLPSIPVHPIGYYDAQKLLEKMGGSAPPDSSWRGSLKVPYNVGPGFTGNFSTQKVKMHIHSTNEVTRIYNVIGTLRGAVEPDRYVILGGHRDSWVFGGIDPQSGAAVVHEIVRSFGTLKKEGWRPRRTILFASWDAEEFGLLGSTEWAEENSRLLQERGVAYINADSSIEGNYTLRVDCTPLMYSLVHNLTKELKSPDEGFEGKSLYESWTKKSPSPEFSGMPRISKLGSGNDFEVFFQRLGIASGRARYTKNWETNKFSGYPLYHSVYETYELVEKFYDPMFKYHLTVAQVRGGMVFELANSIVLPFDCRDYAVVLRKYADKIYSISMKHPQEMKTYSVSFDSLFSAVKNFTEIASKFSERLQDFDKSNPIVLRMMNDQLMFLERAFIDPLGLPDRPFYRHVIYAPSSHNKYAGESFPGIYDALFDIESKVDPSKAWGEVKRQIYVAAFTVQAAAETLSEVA

IC50 [4] [nM]	Bmax ([5]; 4° C.)	Kd ([5]; 4° C., nonlinear regression) [nM]	Bmax ([5]; 37° C.)	Kd ([5]; 37° C.) [nM]	degradation of the parent by rat liver microsomes [6]	Structure (SMILES)	internalization in LNCaP cells [1]	tumor and kidney uptake after pretreatment with PMPA ([2]; 50 mg/kg PMPA 5 minutes prior to injection, 1 hour post injection)	localization to PSMA expressing LNCaP tumors ([2]; 1 hour post injection)	peak uptake in the LNCaP xenograft ([2]; at 1 hours post injection, tail vein bolus) [% ID/g]	localization to PC3 tumors [3]	time at which binding to PSMA reached equilibrium ([1]; 4° C., LNCaP cells) [min]	uptake in LNCaP (PSMA positive) tumors [7]	activity in PC3 (PSMA negative) tumors [8]
–	–	–	–	–	–	O=C(O)CC[C@H](NC(=O)N[C@@H](CCCCNCc1ccc([123I])cc1)C(=O)O)C(=O)O [123I-MIP-1072]	internalized at 37 °C but not at 4 °C	blocked	localization to PSMA expressing LNCaP tumors	17±6	not PC3 tumors	–	–	–
< 50	1,490 fmoles/10^6 cells	4.8	4,400 fmol/10^6 cells	8.1	not degraded	O=C(O)CC[C@H](NC(=O)N[C@@H](CCCCNCc1ccc(I)cc1)C(=O)O)C(=O)O [MIP 1072, (S, S)-2-{3-[1-Carboxy-5-(4-iodo-benzylamino)-pentyl]-ureido}-pentanedioic]	internalized	–	–	–	–	15	significant uptake	very little activity
–	–	–	–	–	22%	CCOc1ccc(NC(C)=O)cc1 [phenacetin, reference compound]	–	–	–	–	–	–	–	–
